Experimental data from patent US20040067561A1, “Process for the production of L-lysine using coryneform bacteria” (priority 2002, published 2004).

Test system: Corynebacterium glutamicum strain DSM13994_Hdap_s
Assay: Screening on LB agar plates containing 4-hydroxydiaminopimelic acid (growth of colonies)
Format: cell-based
Conditions: 10 g/l in LB agar, observed over 48 hours; UV mutant clone DSM13994_Hdap_s compared to parent DSM13994
Protocol: For screening on colonies that are sensitive to 4-hydroxy-diaminopimelic acid, the strain DSM13994 after UV mutagenesis (Sambrook et al., Molecular Cloning: A Laboratory Manual. 2nd Edition, Cold Spring Harbor, New York, 1989) is plated out on LB agar plates containing 4-hydroxydiaminopimelic acid. The agar plates are supplemented with 10 g/l of 4-hydroxydiaminopimelic acid. The growth of the colonies is observed over 48 hours. At this concentration mutants sensitive to 4-hydroxydiamino-pimelic acid may be differentiated from the unaltered parent strain by a delayed growth. […] The strain is identified as DSM13994_Hdap_s.

N[C@H](CC(O)C[C@H](N)C(=O)O)C(=O)O (stereo partly shown) [4-hydroxydiaminopimelic acid]
growth of the colonies: substantially delayed growth
